{"source": "patent US20110305784A1", "about": "“Fractionated products obtained from gamboge resin, and medical uses of the same” (priority 2010, published 2011)", "key": {"male Wistar rats [1]": {"test_system": "male Wistar rats", "assay": "In vivo anti-inflammation test of the fractionated products TSB-14A to TSB-14E (carrageenan hind paw edema)", "conditions": "aspirin positive control, oral, three hours after carrageenan injection", "description": "Briefly, male Wistar rats with a weight of around 160±5 g were randomly divided into four groups (n=5 for each group) including two experimental groups (i.e., TSB-9-W1-1 group and TSB-9-W1-2 group) and two control groups (i.e., a vehicle normal control group and an aspirin positive control group). After overnight fasting, the rats in the TSB-9-W1-1 and the TSB-9-W1-2 groups were orally administered with the formulation TSB-9-W1 at a dose of 10 mg/Kg and a dose of 30 mg/Kg, respectively, the rats in the vehicle normal control group were orally administered with 2% Tween 80 at a dosing volume of 10 mL/Kg, and the rats in the aspirin positive control group were orally administered with aspirin at a dose of 150 mg/Kg. One hour later, 0.1 mL of a 1% carrageenan suspension was intraplantarly injected into the right hind paws of rats in each group. Three hours after the intraplantar injection, the volumes of the left and right hind paws of each rat were measured using a plethysmometer (#7150, UGO Basile, Italy) including a water cell (a diameter of 25 mm; #7157, UGO Basile, Italy), and the hind paw edema volume was expressed as the difference between the measured volumes of the left and right hind paws. Inhibition rate (%) of hind paw edema in each group of rats was calculated using the following Equation (2): […]"}, "male Wistar rats [2]": {"test_system": "male Wistar rats", "assay": "In vivo anti-inflammation test of formulation TSB-9-W1 (carrageenan hind paw edema)", "conditions": "aspirin oral 150 mg/Kg, three hours after carrageenan injection", "description": "Briefly, male Wistar rats with a weight of around 160±5 g were randomly divided into four groups (n=5 for each group) including two experimental groups ([…]1-1 group and TSB-9-W1-2 group) and two control groups (i.e., a vehicle normal control group and an aspirin positive control group). […] Three hours after the intraplantar injection, the volumes of the left and right hind paws of each rat were measured using a plethysmometer (#7150, UGO Basile, Italy) including a water cell (a diameter of 25 mm; #7157, UGO Basile, Italy), and the hind paw edema volume was expressed as the difference between the measured volumes of the left and right hind paws. […] D=(E-F)/E×100 (2) wherein D=inhibition rate of hind paw edema, • E=the average value of the hind paw edema volumes in the vehicle normal control group of rats, and • F=the average value of the hind paw edema volumes in each group of rats."}}, "note": "Marks after values point to notes of the source that are not given here."}
{"smiles": "CC(=O)Oc1ccccc1C(=O)O", "note": "[Aspirin, aspirin]", "values": [{"measurement": "Inhibition rate of hind paw edema (%)", "setting": "male Wistar rats [1]", "value": "37* %"}, {"measurement": "Inhibition rate of hind paw edema (%)", "setting": "male Wistar rats [2]", "value": "40* %"}]}
